Data: US8933122B2, “Use of cationic surfactants as sporicidal agents” (Laboratorios Miret, S.A., priority 2008, dated 2015)

How the values were obtained:
[1] = animals and humans; cited from earlier work
[2] = tested on: endospores from Bacillus subtilis ATCC 6633; test: Sporicidal activity, quantitative suspension test EN 13704:2002 (Example 1); assay type: cell-based; conditions: 20° C.; for Test of LAE sporicidal activity (Na), surviving spores count: 0.3% bovine serum albumin, N 1.8 × 10^7 cfu/mL
Procedure: The determination of the sporicidal activity of LAE has been carried out according to the European standard EN 13704:2002 “Chemical disinfectant—Quantitative suspension test for the evaluation of sporicidal activity of chemical disinfectants used in food, industrial, domestic and institutional areas—Test method and requirements”.
(§1) A test suspension containing endospores from Bacillus subtilis ATCC 6633 was prepared from a culture grown on a nutrient agar, to which additional sporulation enhancement ingredients were added. Plates were harvested with sterile water and endospores were purified by repeated centrifugations and resuspensions in water.
Neutralizer. The neutralizer mixture consisted of 12.7% polysorbate 80, 6.0% Tamol® SN (brand of sodium salt of naphthalene-formaldehyde condensate), 1.7% lecithin, 1% peptone and 0.1% cystine. The solution was intended to neutralize any chemicals so that these would not affect subsequent growth of the bacteria.
The sporicidal activity of a given product is defined by its capacity to reduce at least by 10^3 the amount of Bacillus subtilis bacterial spores in suspension, in the conditions established in the method.
(§2) The product was in contact with a suspension of bacterial spores during an established period of time of 60 minutes. An interfering substance can be added to the suspension, in this case 0.3% bovine serum albumin in distilled water. Next, the effect of the product is neutralized by adding a neutralizer previously chosen, preceding to the surviving spores count.
• 1. Spore suspension obtained from a spored-form culture of Bacillus subtilis. • 2. Count of the spore suspension of Bacillus subtilis. • 3. The possible toxic effect of the neutralizer on the spores in the absence of the product is valued. • 4. Evaluation of the neutralizing effect of the neutralizer over the product. • 4. Evaluation of the inhibitory effect of the product. • 5. Result calculation. Results: Results are expressed as the reduction of viability of the spore suspension in regards to:
(§3) Tabulation of the Method and Test Validation Results (at 20° C.):
The sporicidal activity is calculated as follows: R=N×0.1/Na N is cfu/mL of the spore suspension. Na is cfu/mL of the sporicidal activity. The calculated reduction of a solution of: • 50 ppm of LAE is R=3.5×10^2 cfu/mL • 100 ppm of LAE is R=3.4×10^2 cfu/mL • 150 ppm of LAE is R=4.3×10^2 cfu/mL • 250 ppm of LAE is R>10^3 cfu/mL
A product is considered sporicidal if its use results in a reduction in the number of Bacillus subtilis bacterial spores equal or above 10^3 after being in contact for 60 minutes in the conditions set in […].

[3] = tested on: Penicillium funiculosum CECT 2914; conditions: Fungi; cited from earlier work
[4] = tested on: Salmonella typhimurium ATCC16028; conditions: Gram − Bacteria; cited from earlier work
[5] = tested on: Proteus mirabilis CECT 170; conditions: Gram − Bacteria; cited from earlier work
[6] = tested on: Serratia marcenses CECT 274; conditions: Gram − Bacteria; cited from earlier work
[7] = tested on: endospores from Thermoanaerobacterium thermosaccharolyticum ATCC 7956; test: Sporicidal activity, quantitative suspension test EN 13704:2002 (Example 4); assay type: cell-based; conditions: 20° C.; for calculated reduction R=N×0.1/Na: 60 minutes; for Test of LAE sporicidal activity (Na), surviving spores count: water as interfering substance, N 0.65 × 10^6 cfu/mL
Procedure: The determination of the sporicidal activity of LAE has been carried out according to the European standard EN 13704:2002: “Chemical disinfectant—Quantitative suspension test for the evaluation of sporicidal activity of chemical disinfectants used in food, industrial, domestic and institutional areas—Test method and requirements”.
as §1, with “Thermoanaerobacterium thermosaccharolyticum” for “Bacillus subtilis”, “7956” for “6633”
Neutralizer. The neutralizer mixture consisted of 30 g/L polysorbate 80 in water. The solution was intended to neutralize any chemicals so that these would not affect subsequent growth of the bacteria.
The sporicidal activity of a given product is defined by its capacity to reduce at least by 10^3 the amount of Thermoanaerobacterium thermosaccharolyticum bacterial spores in suspension, in the conditions established in the method.
as §2, with “case” for “case 0.3% bovine serum albumin in distilled”
• 1. Spore suspension obtained from a spored-form culture of Thermoanaerobacterium thermosaccharolyticum. • 2. Count of the spore suspension of Thermoanaerobacterium thermosaccharolyticum. • 3. The possible toxic effect of the neutralizer on the spores in the absence of the product is valued. • 4. Validation of the dilution-neutralisation method. • 5. Evaluation of the inhibitory sporicide effect of the product. • 6. Result calculation. Results: Results are expressed as the reduction of viability of the spore suspension in regards to:
as §3
A product is considered sporicidal if its use results in a reduction (R) in the number of Thermoanaerobacterium thermosaccharolyticum bacterial spores equal to or above 10^3 after being in contact for 60 minutes in the conditions set in EN 13704:2002.

[8] = tested on: Escherichia coli 0157H7; conditions: Gram − Bacteria; cited from earlier work

CCCCCCCCCCCC(=O)N[C@@H](CCCN=C(N)N)C(=O)OCC.Cl [LAE, ethyl ester of the lauramide of the arginine monohydrochloride]
toxicological finding [1]: completely harmless to animals and humans | calculated reduction R=N×0.1/Na ([2]; 50 ppm of LAE, 60 minutes): 3.5×10^2 cfu/mL | calculated reduction R=N×0.1/Na ([2]; 100 ppm of LAE, 60 minutes): 3.4×10^2 cfu/mL | calculated reduction R=N×0.1/Na ([2]; 150 ppm of LAE, 60 minutes): 4.3×10^2 cfu/mL | calculated reduction R=N×0.1/Na ([2]; 250 ppm of LAE, 60 minutes): > 10^3 cfu/mL | concentration displaying sporicidal activity (reduction equal or above 10^3) ([2]; 60 minutes contact, EN 13704): ≥ 250 ppm | LAE concentration from which there is inhibition of spore germination ([2]; 60 minutes): ≥ 50 ppm | Test of LAE sporicidal activity (Na), surviving spores count ([2]; LAE 12.5 μg/mL, 60 minutes contact): >300 cfu/mL | Test of LAE sporicidal activity (Na), surviving spores count ([2]; LAE 25 μg/mL, 60 minutes contact): >300 cfu/mL | Test of LAE sporicidal activity (Na), surviving spores count ([2]; LAE 50 μg/mL, 60 minutes contact): 5.2 × 10^3 cfu/mL | Test of LAE sporicidal activity (Na), surviving spores count ([2]; LAE 100 μg/mL, 60 minutes contact): 5.3 × 10^3 cfu/mL | Test of LAE sporicidal activity (Na), surviving spores count ([2]; LAE 150 μg/mL, 60 minutes contact): 4.2 × 10^3 cfu/mL | Test of LAE sporicidal activity (Na), surviving spores count ([2]; LAE 250 μg/mL, 60 minutes contact): No | Test of LAE sporicidal activity (Na), surviving spores count ([2]; LAE 300 μg/mL, 60 minutes contact): No | M.I.C. [3]: 16 ppm | M.I.C. [4]: 32 ppm | M.I.C. [5]: 32 ppm | M.I.C. [6]: 32 ppm | calculated reduction R=N×0.1/Na ([7]; 32 μg/mL of LAE): < 10^3 cfu/mL | calculated reduction R=N×0.1/Na ([7]; 51 μg/mL of LAE): < 10^3 cfu/mL | calculated reduction R=N×0.1/Na ([7]; 102 μg/mL of LAE): > 10^3 cfu/mL | calculated reduction R=N×0.1/Na ([7]; 205 μg/mL of LAE): > 10^3 cfu/mL | concentration displaying sporicidal activity (reduction equal to or above 10^3) ([7]; 60 minutes contact, EN 13704:2002): ≥ 102 μg/mL | Test of LAE sporicidal activity (Na), surviving spores count ([7]; LAE 32 μg/mL, 60 minutes contact): 2.7 × 10^3 cfu/mL | Test of LAE sporicidal activity (Na), surviving spores count ([7]; LAE 51 μg/mL, 60 minutes contact): 1.6 × 10^3 cfu/mL | Test of LAE sporicidal activity (Na), surviving spores count ([7]; LAE 102 μg/mL, 60 minutes contact): <10^2 cfu/mL | Test of LAE sporicidal activity (Na), surviving spores count ([7]; LAE 205 μg/mL, 60 minutes contact): <10^2 cfu/mL | M.I.C. [8]: 20 ppm
